Structures can show the parent of a compound that is named as a salt.
System: A549 human non-small-cell lung carcinoma cells
Assay: In vivo efficacy, A549 xenograft tumor volume
Design: species or system mice
Conditions: for pairwise comparison of log tumor volume AUC with the combination group / statistical difference (p) of log tumor volume AUC from the vehicle: 2-way ANOVA; for Tumor volume Mean: oral once daily, 2.5 mg/kg p70 S6 kinase inhibitor and/or 20 mg/kg erlotinib hydrochloride, in mm^3 (unit assumed); for Signif. (difference relative to vehicle group): tumor volume, repeated measures ANOVA; for log tumor volume AUC: tumor volume vs. time, trapezoid rule, vehicle 3.91
Experimental: A549 human non-small-cell lung carcinoma cells (5×10^6) are subcutaneously implanted into the flank of female C.B-17 (Fox Chase SCID) Model #CB17SC-M mice in 0.2 mL of matrigel. Approximately 1 week post-implantation when the tumor size is approximately 100 mg, mice are randomized into groups of 10 and dosed orally once daily at 2.5 mg/kg 4-[4-[4-(4-fluoro-3-trifluoromethyl-phenyl)-1-methyl-1H-imidazol-2-yl]-piperidin-1-yl]-1H-pyrazolo[3,4-d]pyrimidine (the p70 S6 kinase inhibitor; formulated in 35% PEG300/10% HPBCD/10% PS80 in H2O; concentration of inhibitor is 0.31 mg/mL) or 20 mg/kg erlotinib hydrochloride (formulated in NaCMC Tween 80; concentration of erlotinib hydrochloride is 2.5 mg/mL) or in combination (2.5 mg/kg of the p70 S6 kinase inhibitor and 20 mg/kg of erlotinib hydrochloride). The vehicle group is given the 2 vehicles (NaCMC Tween 80 and 35% PEG300/10% HPBCD/10% PS80 in H2O) in combination (0.1 mL of each). Treatment is continued for 38 days. Tumor volumes are measured using standard technique twice weekly and reported. Tumor size and body weight are recorded and analyzed bi-weekly. Tumor volume is estimated by using the formula: v=l×w^2×0.536 where l=larger of measured diameter and w=smaller of perpendicular diameter. The analysis uses SAS software version 8.2 (SAS Institutes Inc, Cary, N.C.) to analyze the log tumor volume data using a repeated measures ANOVA model with a spatial power covariance structure. For each time point taken, treatment groups are compared to the vehicle control group. Tumor volumes are given as means±standard errors for each treatment group determined from a repeated measures ANOVA on each group. (SAS for Mixed Models, 2nd Ed., Littell et al., 2006, SAS Institutes Inc, Cary, N.C.).
The tumor volume vs. time data for each animal is used to calculate an area under the curve (AUC) using the trapezoid rule. These AUCs are analyzed by 2-way ANOVA using a log transformation to equalize variance across groups. The two factors are the dose of 4-[4-[4-(4-fluoro-3-trifluoromethyl-phenyl)-1-methyl-1H-imidazol-2-yl]-piperidin-1-yl]-1H-pyrazolo[3,4-d]pyrimidine and the dose of erlotinib hydrochloride. The interaction effect between the factors is used to test for departure from additivity. (An Introduction to Statistical Methods and Data Analysis, R. Lyman Ott, 1993, Duxbury Press, Belmont, Calif.)
The results of this study are shown in the table below. n (the number of mice) is 9 for all the data, except for the data from day 17 onwards in the vehicle group and the data from day 38 onwards in the erlotinib hydrochloride group when it is 8. The data in the column headed Signif. indicates whether the difference relative to the vehicle group is statistically significant: NS=Not Significant (p>0.05); *=0.01<p≦0.05; **=0.001<p≦0.01; ***=p≦0.001.

| SMILES | pairwise comparison of log tumor volume AUC with the combination group | statistical difference (p) of log tumor volume AUC from the vehicle | Tumor volume Mean (Day 7) | Signif. (difference relative to vehicle group) (Day 7) | Tumor volume Mean (Day 9) | Signif. (difference relative to vehicle group) (Day 9) | Tumor volume Mean (Day 14) | Signif. (difference relative to vehicle group) (Day 14) | Tumor volume Mean (Day 17) | Signif. (difference relative to vehicle group) (Day 17) | Tumor volume Mean (Day 21) | Signif. (difference relative to vehicle group) (Day 21) | Tumor volume Mean (Day 24) | Signif. (difference relative to vehicle group) (Day 24) | Tumor volume Mean (Day 28) | Signif. (difference relative to vehicle group) (Day 28) | Tumor volume Mean (Day 31) | Signif. (difference relative to vehicle group) (Day 31) | Tumor volume Mean (Day 35) | Signif. (difference relative to vehicle group) (Day 35) | further results |
| --- | --- | --- | --- | --- | --- | --- | --- | --- | --- | --- | --- | --- | --- | --- | --- | --- | --- | --- | --- | --- | --- |
| Cn1cc(-c2ccc(F)c(C(F)(F)F)c2)nc1C1CCN(c2ncnc3[nH]ncc23)CC1 [p70 S6 Kinase Inhibitor, 4-[4-[4-(4-fluoro-3-trifluoromethyl-phenyl)-1-methyl-1H-imidazol-2-yl]-piperidin-1-yl]-1H-pyrazolo[3,4-d]pyrimidine] | significantly different from the combination group | not significantly different from the vehicle | 33.8 | NS (NS=Not Significant (p>0.05)) | 51.9 | NS (NS=Not Significant (p>0.05)) | 56.2 | NS (NS=Not Significant (p>0.05)) | 75.9 | NS (NS=Not Significant (p>0.05)) | 94.1 | NS (NS=Not Significant (p>0.05)) | 113.5 | NS (NS=Not Significant (p>0.05)) | 196.6 | NS (NS=Not Significant (p>0.05)) | 231.3 | NS (NS=Not Significant (p>0.05)) | 302.4 | NS (NS=Not Significant (p>0.05)) | Tumor volume Mean (Day 38): 353.3; Signif. (difference relative to vehicle group) (Day 38): NS (NS=Not Significant (p>0.05)); Tumor volume Mean (Day 42): 425.5; Signif. (difference relative to vehicle group) (Day 42): NS (NS=Not Significant (p>0.05)); Tumor volume Mean (Day 44): 530.9; Signif. (difference relative to vehicle group) (Day 44): NS (NS=Not Significant (p>0.05)); log tumor volume AUC: 3.85 |
| C#Cc1cccc(Nc2ncnc3cc(OCCOC)c(OCCOC)cc23)c1 [Erlotinib Hydrochloride, N-(3-ethynylphenyl)-6,7-bis-(2-methoxyethoxy)-4-quinazolinamine] | significantly different from the combination group | not significantly different from the vehicle | 39.5 | NS (NS=Not Significant (p>0.05)) | 51.5 | NS (NS=Not Significant (p>0.05)) | 61.8 | NS (NS=Not Significant (p>0.05)) | 74.8 | NS (NS=Not Significant (p>0.05)) | 91.1 | NS (NS=Not Significant (p>0.05)) | 101.6 | NS (NS=Not Significant (p>0.05)) | 139.9 | NS (NS=Not Significant (p>0.05)) | 141.8 | ** (**=0.001<p≦0.01) | 196.7 | ** (**=0.001<p≦0.01) | Tumor volume Mean (Day 38): 259.4; Signif. (difference relative to vehicle group) (Day 38): * (*=0.01<p≦0.05); Tumor volume Mean (Day 42): 260.1; Signif. (difference relative to vehicle group) (Day 42): ** (**=0.001<p≦0.01); Tumor volume Mean (Day 44): 373.8; Signif. (difference relative to vehicle group) (Day 44): * (*=0.01<p≦0.05); log tumor volume AUC: 3.76 |
